# Laboratory results published in the NIST ThermoML archive (doi:10.1021/acs.jced.5b00679).
# Numbers after ± are expanded uncertainties.
# Tests used:
# [1] = Crystal; DTA
# [2] = Molar enthalpy of transition or fusion; conditions: Crystal; DSC
SMILES,Normal melting temperature [1] [°C],Molar enthalpy of transition or fusion [2] [kcal/mol]
CC(C)n1c2ccccc2c2ccccc21 [9-(1-methylethyl)carbazole],120.8 ± 2,4.36 ± 0.184
c1ccc2c(c1)[nH]c1ccccc12 [9H-carbazole],244.0 ± 2,6.62 ± 0.201
CCCCn1c2ccccc2c2ccccc21 [N-butyl-9H-carbazole],57.5 ± 2,5.45 ± 0.136
"CCn1c2c(c3c1CCCC3)CCCC2 [9-ethyl-2,3,4,5,6,7,8,9-octahydro-1H-carbazole]",43 ± 2,4.92 ± 0.139
"c1ccc2c3c([nH]c2c1)CCCC3 [2,3,4,9-tetrahydro-1H-carbazole]",118.2 ± 2,4.27 ± 0.1
Cn1c2ccccc2c2ccccc21 [9-methyl-9H-carbazole],88 ± 2,3.93 ± 0.136
CCCn1c2ccccc2c2ccccc21 [N-propyl-9H-carbazole],47.2 ± 2,4.68 ± 0.117
"CCn1c2c(c3ccccc31)CCCC2 [9-ethyl-2,3,4,9-tetrahydrocarbazole]",9.2 ± 2,2.97 ± 0.0765
CCn1c2ccccc2c2ccccc21 [9-ethylcarbazole],69.2 ± 2,3.96 ± 0.12
